According to US20210395239A1 (Hoffmann-La Roche Inc., priority 2018, published 2021):

Biological target: T1, human TLR8 (Homo sapiens, UniProt Q9NR97)
T1 construct: host or cells: HEK293 (HEK-Blue hTLR8)
T1 sequence (Q9NR97 27-1041): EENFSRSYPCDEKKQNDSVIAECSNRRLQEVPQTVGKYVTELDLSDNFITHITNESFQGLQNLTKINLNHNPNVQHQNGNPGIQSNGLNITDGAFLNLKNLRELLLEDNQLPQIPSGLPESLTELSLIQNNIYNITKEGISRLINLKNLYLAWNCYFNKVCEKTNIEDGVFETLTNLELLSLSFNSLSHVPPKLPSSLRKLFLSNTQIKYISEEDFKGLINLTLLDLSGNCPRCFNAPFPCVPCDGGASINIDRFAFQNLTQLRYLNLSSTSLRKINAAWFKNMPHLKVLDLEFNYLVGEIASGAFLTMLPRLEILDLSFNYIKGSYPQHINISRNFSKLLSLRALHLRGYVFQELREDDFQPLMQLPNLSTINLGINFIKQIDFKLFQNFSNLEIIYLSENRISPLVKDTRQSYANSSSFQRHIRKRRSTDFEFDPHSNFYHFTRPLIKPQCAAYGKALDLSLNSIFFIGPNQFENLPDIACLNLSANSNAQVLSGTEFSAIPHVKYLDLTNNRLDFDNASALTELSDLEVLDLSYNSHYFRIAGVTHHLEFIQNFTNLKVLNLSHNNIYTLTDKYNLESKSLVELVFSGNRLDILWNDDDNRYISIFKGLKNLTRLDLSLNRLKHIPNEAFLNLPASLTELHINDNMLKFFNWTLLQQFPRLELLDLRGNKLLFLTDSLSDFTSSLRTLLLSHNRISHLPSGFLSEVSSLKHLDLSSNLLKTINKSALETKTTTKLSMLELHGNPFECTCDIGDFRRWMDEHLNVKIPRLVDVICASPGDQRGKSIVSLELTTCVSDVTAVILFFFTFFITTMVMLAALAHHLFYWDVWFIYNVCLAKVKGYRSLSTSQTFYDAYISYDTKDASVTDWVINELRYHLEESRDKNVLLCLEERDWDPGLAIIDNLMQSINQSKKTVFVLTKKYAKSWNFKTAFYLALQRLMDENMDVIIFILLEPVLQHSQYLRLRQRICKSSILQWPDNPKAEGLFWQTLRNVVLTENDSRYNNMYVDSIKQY
Experiment: HEK293-Blue-hTLR-8 cells assay (SEAP reporter, R848 stimulation)
Format: cell-based
Conditions: HEK293-Blue-hTLR8 cells, R848, 20 hrs; read-out: HEK/hTLR8 IC50
Summary of the method: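 HEK293-Blue-hTLR8 cells (NF-κB/AP-1-driven SEAP) incubated 20 h at 37° C with serially diluted compound (1% DMSO) plus R848 stimulation. Supernatant SEAP measured with QUANTI-Blue, 2 h at 37° C, absorbance 620–655 nm.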

SMILES	IC50
Cc1cc(N2CCN(C[C@H]3CN(c4ccc(C#N)c5nccnc45)C[C@@H](C)O3)CC2)nc(N2CC(N)C2)n1 [Example 112, 8-[(2S,6R)-2-[[4-[2-(3-aminoazetidin-1-yl)-6-methyl-pyrimidin-4-yl]piperazin-1-yl]methyl]-6-methyl-morpholin-4-yl]quinoxaline-5-carbonitrile]	1 nM
C[C@@H]1CN(c2ccc(C#N)c3ncccc23)C[C@H](CN2CCC(c3cccc(N4CCNCC4)c3)C2)O1 (stereo partly drawn) [Example 1, 5-[(2R,6S)-2-methyl-6-[[3-(3-piperazin-1-ylphenyl)pyrrolidin-1-yl]methyl]morpholin-4-yl]quinoline-8-carbonitrile]	40 nM
Cc1ccc(N2C[C@H](CN3CCN(c4nccc(N5CCNCC5)n4)CC3)O[C@H](C)C2)c2nccnc12 [Example 116, (2R,6S)-2-methyl-4-(8-methylquinoxalin-5-yl)-6-[[4-(4-piperazin-1-ylpyrimidin-2-yl)piperazin-1-yl]methyl]morpholine]	5 nM
C[C@@H]1CN(c2ccc(C#N)c3ncccc23)C[C@H](CN2CC(c3ccc(N4CCNCC4)cc3)C2)O1 [Example 3, 5-[(2R,6S)-2-methyl-6-[[3-(4-piperazin-1-ylphenyl)azetidin-1-yl]methyl]morpholin-4-yl]quinoline-8-carbonitrile]	9 nM
C[C@@H]1CN(c2ccc(C#N)c3nccnc23)C[C@H](CN2CCN(c3ccnc(N4C[C@@H](N)[C@@H](F)C4)n3)CC2)O1 [Example 108, 8-[(2S,6R)-2-[[4-[2-[(3R,4S)-3-amino-4-fluoro-pyrrolidin-1-yl]pyrimidin-4-yl]piperazin-1-yl]methyl]-6-methyl-morpholin-4-yl]quinoxaline-5-carbonitrile]	1 nM
CO[C@H]1CN(c2nc(C)cc(N3CCN(C[C@H]4CN(c5ccc(C#N)c6nccnc56)C[C@@H](C)O4)CC3)n2)C[C@@H]1N [Example 106, 8-[(2S,6R)-2-[[4-[2-[(3S,4S)-3-amino-4-methoxy-pyrrolidin-1-yl]-6-methyl-pyrimidin-4-yl]piperazin-1-yl]methyl]-6-methyl-morpholin-4-yl]quinoxaline-5-carbonitrile]	1 nM
[2H]c1ccc2c(N3C[C@H](CN4CC(O)(c5ccc(N6CC(C)(N)C6)cc5)C4)O[C@H](C)C3)ccc(C#N)c2n1 [Example 156, 5-[(2S,6R)-2-[[3-[4-(3-amino-3-methyl-azetidin-1-yl)phenyl]-3-hydroxy-azetidin-1-yl]methyl]-6-methyl-morpholin-4-yl]-2-deuterio-quinoline-8-carbonitrile]	24 nM
[2H]c1ccc2c(N3C[C@H](CN4CCN(c5ccc(N6CC(C)(N)C6)nc5C)CC4)O[C@H](C)C3)ccc(C#N)c2n1 [Example 137, 5-[(2S,6R)-2-[[4-[6-(3-amino-3-methyl-azetidin-1-yl)-2-methyl-3-pyridyl]piperazin-1-yl]methyl]-6-methyl-morpholin-4-yl]-2-deuterio-quinoline-8-carbonitrile]	11 nM
